Reference: US20160304611A1, “COMBINATION THERAPY FOR TREATING ADULT PATIENTS WITH RELAPSED/REFRACTORY CD22+ B-CELL ACUTE LYMPHOBLASTIC LEUKEMIA” (Immunomedics, Inc., priority 2015, published 2016)
Values joined by “and” are separate entries in the source; they are usually repeats but may differ in a detail not shown here. Equal values may be shown once.

Legend:
[1] = in subjects; cited from earlier work
[2] = tested on: relapsed/refractory CD22+B-ALL; test: Prospective Phase 2 study of epratuzumab added to vincristine and dexamethasone (salvage chemoimmunotherapy); assay type: in vivo, human
Method: Here, we have evaluated the addition of epratuzumab (hLL2, 360 mg/m^2/d iv on days 1, 8, 15, and 22) to the combination of vincristine (2 mg iv, days 1, 8, 15 and 22) and dexamethasone (40 mg/d po, days 1, 8, 15, and 22) in patients >55 years old, with relapsed/refractory CD22+B-ALL. Dexamethasone was administered before epratuzumab administration+paracetamol 1 g as prophylaxis in order to prevent epratuzumab infusion reactions. Also, intrathecal injections of methotrexate 15 mg, aracytine 40 mg, and depomedrol 40 mg were recommended on days 1 and 8.
This prospective Phase 2 study was conducted at 6 French centers and was approved by the Brest ethical committee and the clinical trial department of the “Agence Française de Sécurité Sanitaire des Produits de Santé” (AFSSAPS). This trial is registered as NCT01219816. Epratuzumab was supplied by Immunomedics, Inc. (Morris Plains, N.J., USA). Written informed consent was obtained from each patient.
The main objective of the study was the CR rate defined by patients reaching CR+CR without platelets recovery (CRi). CR was defined as <5% marrow blasts, neutrophils >1×10^9/L, platelets >100×10^9/L and no evidence of extramedullary disease. CRi was defined similarly but without recovery of platelets counts. Partial response (PR) was defined as a decrease of >50% of blasts in the bone marrow.
(§1) Responses were evaluated between 4 and 6 weeks post-salvage regimen. Patients in response (CR, CRi or PR) were allowed to receive a second cycle as consolidation. Toxicity was evaluated according to the NCI-CTC criteria version 4. Cytologic, phenotypic, karyotype and BCR-ABL1 (for Ph+B-ALL) molecular analyses were performed on blood samples and/or BM aspirates by standard methods.
Over a three year period, 26 patients were enrolled. One case was excluded because of progression before receiving the treatment, while 2 younger patients were inappropriately included (person in fourth relapse and a person with refractory second relapse). All the 25 treated patients were considered for analysis.

[3] = tested on: Leukemic blasts; test: Minimal residual disease (MRD) evaluated by flow cytometry on bone marrow samples; assay type: in vivo, human
Method: FIG. 1A. Minimal residual disease (MRD) evaluated by flow cytometry. All patients were monitored for CD22 expression before treatment and then for phenotypic MRD. Leukemic blasts were evaluated using a 8 colors panel including antibodies to CD45, CD19, CD10, CD34, CD38, CD58, CD20 and CD22. MRD was assessed, concomitantly to responses, between 4 and 6 weeks after beginning the salvage regimen using flow cytometry (FACS CANTO II, BD, Biosciences, San Jose, Calif.) performed on bone marrow samples. Two different anti-CD22 antibodies were used. The RFB4 antibody (PE conjugated, Invitrogen, Camarillo, Calif.) and epratuzumab bind competitively to CD22, meaning that in the presence of epratuzumab, RFB4 binding is blocked. By contrast, the SHCL-1 antibody (PE or PerCp-Cy5.5 conjugated, BD Biosciences, San Jose, Calif.) binds to a non-crossblocking epitope and can be used to assess the modulation of the CD22 antigen on the blasts surface. […] Case 1: An example of positive MRD. Leukemic blasts were both CD22-RFB4 and CD22-SHCL-1 positive before treatment. After treatment, the percentage of blasts is estimated at 0.05%.
FIG. 1B. Minimal residual disease (MRD) evaluated by flow cytometry. All patients were monitored for CD22 expression before treatment and then for phenotypic MRD. Leukemic blasts were evaluated using a 8 colors panel including antibodies to CD45, CD19, CD10, CD34, CD38, CD58, CD20 and CD22. MRD was assessed, concomitantly to responses, between 4 and 6 weeks after beginning the salvage regimen using flow cytometry (FACS CANTO II, BD, Biosciences, San Jose, Calif.) performed on bone marrow samples. Two different anti-CD22 antibodies were used. The RFB4 antibody (PE conjugated, Invitrogen, Camarillo, Calif.) and epratuzumab bind competitively to CD22, meaning that in the presence of epratuzumab, RFB4 binding is blocked. By contrast, the SHCL-1 antibody (PE or PerCp-Cy5.5 conjugated, BD Biosciences, San Jose, Calif.) binds to a non-crossblocking epitope and can be used to assess the modulation of the CD22 antigen on the blasts surface. […] Case 2: An example of “negative” MRD. Leukemic blasts (CD10/CD20 negative) are both CD22-RFB4 and CD22-SHCL-1 positive before treatment. After treatment, MRD was <10^−5.

[4] = Toxicity evaluated according to the NCI-CTC criteria version 4; assay type: in vivo, human
Method: as §1

[5] = tested on: CD22; test: CD22 expression on blasts after treatment, flow cytometry with RFB4 and SHCL-1 anti-CD22 antibodies; assay type: cell-based, human; conditions: non-responders and three patients with detectable MRD
Method: FIG. 1A. Minimal residual disease (MRD) evaluated by flow cytometry. All patients were monitored for CD22 expression before treatment and then for phenotypic MRD. Leukemic blasts were evaluated using a 8 colors panel including antibodies to CD45, CD19, CD10, CD34, CD38, CD58, CD20 and CD22. MRD was assessed, concomitantly to responses, between 4 and 6 weeks after beginning the salvage regimen using flow cytometry (FACS CANTO II, BD, Biosciences, San Jose, Calif.) performed on bone marrow samples. Two different anti-CD22 antibodies were used. The RFB4 antibody (PE conjugated, Invitrogen, Camarillo, Calif.) and epratuzumab bind competitively to CD22, meaning that in the presence of epratuzumab, RFB4 binding is blocked. […]
FIG. 1B. Minimal residual disease (MRD) evaluated by flow cytometry. All patients were monitored for CD22 expression before treatment and then for phenotypic MRD. Leukemic blasts were evaluated using a 8 colors panel including antibodies to CD45, CD19, CD10, CD34, CD38, CD58, CD20 and CD22. MRD was assessed, concomitantly to responses, between 4 and 6 weeks after beginning the salvage regimen using flow cytometry (FACS CANTO II, BD, Biosciences, San Jose, Calif.) performed on bone marrow samples. […]

[6] = combination with vincristine and dexamethasone, 25 treated patients
[7] = combination with vincristine and dexamethasone, of 25 treated patients
[8] = combination with vincristine and dexamethasone, six Ph+B-ALL patients
[9] = combination with vincristine and dexamethasone, unclear etiology

In the case of “veltuzumab: humanized IgG1 antibody against CD20”, the “immunogenicity compared with rituximab” value [1] is listed as “less immunogenic”.

With “epratuzumab: anti-CD22 humanized antibody (Immunomedics, Inc.); given here with vincristine and dexamethasone” the “CR+CRi rate” value [2, 6] was 20%, the PR rate [2, 6] was 20% and the “patients who died during treatment due to progression of the disease” value [2, 6] was “Two”. For the same substance, the “number of patients with CR” value [2, 7] was 4, the “number of patients with CRi” value [2, 7] was 1 and the “number of patients with PR” value [2, 7] was 5. The median leukemia-free survival ([2]; combination with vincristine and dexamethasone, patients achieving CR/CRi, range 1-8) was 3.8 months, the “number of patients with CR among Ph+B-ALL patients” value [2, 8] was 2 and the “number of patients with PR among Ph+B-ALL patients” value [2, 8] was 1. The “1-year OS” value ([2]; combination with vincristine and dexamethasone, whole cohort N=25, estimated) was 13+7%, the “median overall survival (OS)” value ([2]; combination with vincristine and dexamethasone, whole cohort N=25, range 0.5-43) was 4 months and the overall response rate ([2]; epratuzumab 360 mg/m2/d iv + vincristine 2 mg iv + dexamethasone 40 mg/d po, days 1, 8, 15, 22, 25 treated patients, evaluated 4-6 weeks post-salvage) was 40%. The “percentage of blasts after treatment” value ([3]; FIG. 1A, Case 1, example of positive MRD) was 0.05%, the MRD after treatment ([3]; FIG. 1B, Case 2, example of negative MRD) was < 10^−5 and the “number of CR/CRi patients with undetectable MRD” value ([3]; combination with vincristine and dexamethasone, 5 CR/CRi patients) was 2. The “MRD evaluated by cytometry, individual responder patient” value ([3]; combination with vincristine and dexamethasone, CR/CRi patient with detectable MRD) was 1.2%, the “MRD evaluated by cytometry, individual responder patients” value ([3]; combination with vincristine and dexamethasone, CR/CRi patients with detectable MRD) was 5×10^−4 and 7×10^−3 and the “tolerability of salvage regimen” value ([4]; combination with vincristine and dexamethasone, large majority of grade 3/4 toxicities were expected pancytopenia) was “generally tolerated well”. For the same substance, the “grade-3 renal toxicity, number of cases” value [4, 9] was “One”, the “grade-4 hypertriglyceridemia, number of cases” value [4, 9] was “one” and the “grade-3 allergic toxicity, number of cases” value ([4]; related to the first epratuzumab infusion) was “One”. The “targeting of CD22 on residual blasts (RFB4 negative, SHCL-1 positive)” value [5] was “persistent targeting of epratuzumab on blasts without loss of the CD22/epratuzumab complex from the cell surface”.
